Test results: patent US12522602B2, “Derivatives having 2,3-dihydro-1H-indene or 2,3-dihydrobenzofuran moiety or pharmaceutically acceptable salt thereof and pharmaceutical compositions comprising the same” (YUHAN CORPORATION, priority 2019, dated 2026)

system: GM1 production in Jurkat cells; test: cells; assay type: cell-based; settings: Homo sapiens, Jurkat, 72 h

SMILES | IC50
O=C(NC1CCc2cc(-c3ccc(F)cc3)ccc21)O[C@@H]1CN2CCC1CC2 (stereo partly drawn) [Example 1, (S)-quinuclidin-3-yl (5-(4-fluorophenyl)-2,3-dihydro-1H-inden-1-yl)carbamate] | 139 nM
O=C(NC1CCc2cc(-c3ccc(Cl)cc3)ccc21)O[C@@H]1CN2CCC1CC2 (stereo partly drawn) [Example 2, (S)-quinuclidin-3-yl (5-(4-chlorophenyl)-2,3-dihydro-1H-inden-1-yl)carbamate] | 202 nM
O=C(NC1CCc2cc(-c3ccc(C(F)(F)F)cc3)ccc21)O[C@@H]1CN2CCC1CC2 (stereo partly drawn) [Example 3, (S)-quinuclidin-3-yl (5-(4-(trifluoromethyl)phenyl)-2,3-dihydro-1H-inden-1-yl)carbamate] | 142 nM
O=C(NC1CCc2cc(-c3ccc(OC(F)(F)F)cc3)ccc21)O[C@@H]1CN2CCC1CC2 (stereo partly drawn) [Example 4, (S)-quinuclidin-3-yl (5-(4-(trifluoromethoxy)phenyl)-2,3-dihydro-1H-inden-1-yl)carbamate] | 95.8 nM
O=C(NC1CCc2cc(-c3cccc(F)c3)ccc21)O[C@@H]1CN2CCC1CC2 (stereo partly drawn) [Example 5, (S)-quinuclidin-3-yl (5-(3-fluorophenyl)-2,3-dihydro-1H-inden-1-yl)carbamate] | 70.2 nM
O=C(NC1CCc2cc(-c3cccc(Cl)c3)ccc21)O[C@@H]1CN2CCC1CC2 (stereo partly drawn) [Example 6, (S)-quinuclidin-3-yl (5-(3-chlorophenyl)-2,3-dihydro-1H-inden-1-yl)carbamate] | 39.4 nM
O=C(NC1CCc2cc(-c3cccc(C(F)(F)F)c3)ccc21)O[C@@H]1CN2CCC1CC2 (stereo partly drawn) [Example 7, (S)-quinuclidin-3-yl (5-(3-(trifluoromethyl)phenyl)-2,3-dihydro-1H-inden-1-yl)carbamate] | 36.8 nM
O=C(NC1CCc2cc(-c3cccc(OC(F)(F)F)c3)ccc21)O[C@@H]1CN2CCC1CC2 (stereo partly drawn) [Example 8, (S)-quinuclidin-3-yl (5-(3-(trifluoromethoxy)phenyl)-2,3-dihydro-1H-inden-1-yl)carbamate] | 27.4 nM
O=C(NC1CCc2cc(-c3ccccc3F)ccc21)O[C@@H]1CN2CCC1CC2 (stereo partly drawn) [Example 9, (S)-quinuclidin-3-yl (5-(2-fluorophenyl)-2,3-dihydro-1H-inden-1-yl)carbamate] | 93.1 nM
O=C(NC1CCc2cc(-c3ccccc3Cl)ccc21)O[C@@H]1CN2CCC1CC2 (stereo partly drawn) [Example 10, (S)-quinuclidin-3-yl (5-(2-chlorophenyl)-2,3-dihydro-1H-inden-1-yl)carbamate] | 65.5 nM
O=C(NC1CCc2cc(-c3ccccc3C(F)(F)F)ccc21)O[C@@H]1CN2CCC1CC2 (stereo partly drawn) [Example 11, (S)-quinuclidin-3-yl (5-(2-(trifluoromethyl)phenyl)-2,3-dihydro-1H-inden-1-yl)carbamate] | 123 nM
O=C(NC1CCc2cc(-c3ccccc3OC(F)(F)F)ccc21)O[C@@H]1CN2CCC1CC2 (stereo partly drawn) [Example 12, (S)-quinuclidin-3-yl (5-(2-(trifluoromethoxy)phenyl)-2,3-dihydro-1H-inden-1-yl)carbamate] | 73 nM
Cc1ccc(-c2ccc3c(c2)CCC3NC(=O)O[C@@H]2CN3CCC2CC3)cc1 (stereo partly drawn) [Example 13, (S)-quinuclidin-3-yl (5-(p-tolyl)-2,3-dihydro-1H-inden-1-yl)carbamate] | 41.7 nM
O=C(NC1CCc2cc(-c3ccc(OC(F)F)cc3)ccc21)O[C@@H]1CN2CCC1CC2 (stereo partly drawn) [Example 14, (S)-quinuclidin-3-yl (5-(4-(difluoromethoxy)phenyl)-2,3-dihydro-1H-inden-1-yl)carbamate] | 54.3 nM
O=C(NC1CCc2cc(-c3ccc(F)c(F)c3)ccc21)O[C@@H]1CN2CCC1CC2 (stereo partly drawn) [Example 15, (S)-quinuclidin-3-yl (5-(3,4-difluorophenyl)-2,3-dihydro-1H-inden-1-yl)carbamate] | 34.4 nM
O=C(NC1CCc2cc(-c3ccc(F)cc3F)ccc21)O[C@@H]1CN2CCC1CC2 (stereo partly drawn) [Example 16, (S)-quinuclidin-3-yl (5-(2,4-difluorophenyl)-2,3-dihydro-1H-inden-1-yl)carbamate] | 56.1 nM
O=C(NC1CCc2cc(-c3cccc(F)c3F)ccc21)O[C@@H]1CN2CCC1CC2 (stereo partly drawn) [Example 17, (S)-quinuclidin-3-yl (5-(2,3-difluorophenyl)-2,3-dihydro-1H-inden-1-yl)carbamate] | 27.6 nM
O=C(NC1CCc2cc(-c3cc(F)ccc3F)ccc21)O[C@@H]1CN2CCC1CC2 (stereo partly drawn) [Example 18, (S)-quinuclidin-3-yl (5-(2,5-difluorophenyl)-2,3-dihydro-1H-inden-1-yl)carbamate] | 31.6 nM
O=C(NC1CCc2cc(-c3cc(F)cc(F)c3)ccc21)O[C@@H]1CN2CCC1CC2 (stereo partly drawn) [Example 19, (S)-quinuclidin-3-yl (5-(3,5-difluorophenyl)-2,3-dihydro-1H-inden-1-yl)carbamate] | 20.3 nM
O=C(NC1CCc2cc(-c3ccc(F)c(F)c3F)ccc21)O[C@@H]1CN2CCC1CC2 (stereo partly drawn) [Example 20, (S)-quinuclidin-3-yl (5-(2,3,4-trifluorophenyl)-2,3-dihydro-1H-inden-1-yl)carbamate] | 126 nM
O=C(NC1CCc2cc(-c3cc(F)c(F)cc3F)ccc21)O[C@@H]1CN2CCC1CC2 (stereo partly drawn) [Example 21, (S)-quinuclidin-3-yl (5-(2,4,5-trifluorophenyl)-2,3-dihydro-1H-inden-1-yl)carbamate] | 127 nM

SMILES | IC50
O=C(NC1CCc2cc(-c3cc(Cl)cc(Cl)c3)ccc21)O[C@@H]1CN2CCC1CC2 (stereo partly drawn) [Example 22, (S)-quinuclidin-3-yl (5-(3,5-dichlorophenyl)-2,3-dihydro-1H-inden-1-yl)carbamate] | 89.6 nM
O=C(NC1CCc2cc(-c3ccc(Cl)c(Cl)c3)ccc21)O[C@@H]1CN2CCC1CC2 (stereo partly drawn) [Example 23, (S)-quinuclidin-3-yl (5-(3,4-dichlorophenyl)-2,3-dihydro-1H-inden-1-yl)carbamate] | 63.7 nM
O=C(NC1CCc2cc(-c3cc(Cl)ccc3Cl)ccc21)O[C@@H]1CN2CCC1CC2 (stereo partly drawn) [Example 24, (S)-quinuclidin-3-yl (5-(2,5-dichlorophenyl)-2,3-dihydro-1H-inden-1-yl)carbamate] | 17.4 nM
O=C(NC1CCc2ccc(-c3ccc(F)cc3)cc21)O[C@@H]1CN2CCC1CC2 (stereo partly drawn) [Example 25, (S)-quinuclidin-3-yl (6-(4-fluorophenyl)-2,3-dihydro-1H-inden-1-yl)carbamate] | 106 nM
O=C(NC1CCc2ccc(-c3ccc(Cl)cc3)cc21)O[C@@H]1CN2CCC1CC2 (stereo partly drawn) [Example 26, (S)-quinuclidin-3-yl (6-(4-chlorophenyl)-2,3-dihydro-1H-inden-1-yl)carbamate] | 67.2 nM
O=C(NC1CCc2ccc(-c3ccc(C(F)(F)F)cc3)cc21)O[C@@H]1CN2CCC1CC2 (stereo partly drawn) [Example 27, (S)-quinuclidin-3-yl (6-(4-(trifluoromethyl)phenyl)-2,3-dihydro-1H-inden-1-yl)carbamate] | 35.7 nM
O=C(NC1CCc2ccc(-c3ccc(OC(F)(F)F)cc3)cc21)O[C@@H]1CN2CCC1CC2 (stereo partly drawn) [Example 28, (S)-quinuclidin-3-yl (6-(4-(trifluoromethoxy)phenyl)-2,3-dihydro-1H-inden-1-yl)carbamate] | 52 nM
O=C(NC1CCc2ccc(-c3cccc(F)c3)cc21)O[C@@H]1CN2CCC1CC2 (stereo partly drawn) [Example 29, (S)-quinuclidin-3-yl (6-(3-fluorophenyl)-2,3-dihydro-1H-inden-1-yl)carbamate] | 63 nM
O=C(NC1CCc2ccc(-c3cccc(Cl)c3)cc21)O[C@@H]1CN2CCC1CC2 (stereo partly drawn) [Example 30, (S)-quinuclidin-3-yl (6-(3-chlorophenyl)-2,3-dihydro-1H-inden-1-yl)carbamate] | 107 nM
O=C(NC1CCc2ccc(-c3cccc(C(F)(F)F)c3)cc21)O[C@@H]1CN2CCC1CC2 (stereo partly drawn) [Example 31, (S)-quinuclidin-3-yl (6-(3-(trifluoromethyl)phenyl)-2,3-dihydro-1H-inden-1-yl)carbamate] | 65.5 nM
O=C(NC1CCc2ccc(-c3cccc(OC(F)(F)F)c3)cc21)O[C@@H]1CN2CCC1CC2 (stereo partly drawn) [Example 32, (S)-quinuclidin-3-yl (6-(3-(trifluoromethoxy)phenyl)-2,3-dihydro-1H-inden-1-yl)carbamate] | 120 nM
O=C(NC1CCc2ccc(-c3ccc(OC(F)F)cc3)cc21)O[C@@H]1CN2CCC1CC2 (stereo partly drawn) [Example 37, (S)-quinuclidin-3-yl (6-(4-(difluoromethoxy)phenyl)-2,3-dihydro-1H-inden-1-yl)carbamate] | 55.2 nM
Cc1ccc(-c2ccc3c(c2)C(NC(=O)O[C@@H]2CN4CCC2CC4)CC3)cc1 (stereo partly drawn) [Example 38, (S)-quinuclidin-3-yl (6-(p-tolyl)-2,3-dihydro-1H-inden-1-yl)carbamate] | 62 nM
O=C(NC1CCc2ccc(-c3ccc(F)c(F)c3)cc21)O[C@@H]1CN2CCC1CC2 (stereo partly drawn) [Example 39, (S)-quinuclidin-3-yl (6-(3,4-difluorophenyl)-2,3-dihydro-1H-inden-1-yl)carbamate] | 51.9 nM
O=C(NC1CCc2ccc(-c3ccc(F)cc3F)cc21)O[C@@H]1CN2CCC1CC2 (stereo partly drawn) [Example 43, (S)-quinuclidin-3-yl (6-(2,4-difluorophenyl)-2,3-dihydro-1H-inden-1-yl)carbamate] | 183 nM
O=C(NC1CCc2ccc(-c3cc(F)c(F)cc3F)cc21)O[C@@H]1CN2CCC1CC2 (stereo partly drawn) [Example 44, (S)-quinuclidin-3-yl (6-(2,4,5-trifluorophenyl)-2,3-dihydro-1H-inden-1-yl)carbamate] | 35.2 nM
O=C(NC1CCc2ccc(-c3ccc(F)c(F)c3F)cc21)O[C@@H]1CN2CCC1CC2 (stereo partly drawn) [Example 45, (S)-quinuclidin-3-yl (6-(2,3,4-trifluorophenyl)-2,3-dihydro-1H-inden-1-yl)carbamate] | 57.3 nM
O=C(NC1CCc2ccc(-c3cc(Cl)ccc3Cl)cc21)O[C@@H]1CN2CCC1CC2 (stereo partly drawn) [Example 46, (S)-quinuclidin-3-yl (6-(2,5-dichlorophenyl)-2,3-dihydro-1H-inden-1-yl)carbamate] | 19.2 nM
O=C(NC1CCc2ccc(-c3ccc(Cl)c(Cl)c3)cc21)O[C@@H]1CN2CCC1CC2 (stereo partly drawn) [Example 47, (S)-quinuclidin-3-yl (6-(3,4-dichlorophenyl)-2,3-dihydro-1H-inden-1-yl)carbamate] | 26.6 nM
O=C(NC1CCc2ccc(-c3cc(Cl)cc(Cl)c3)cc21)O[C@@H]1CN2CCC1CC2 (stereo partly drawn) [Example 48, (S)-quinuclidin-3-yl (6-(3,5-dichlorophenyl)-2,3-dihydro-1H-inden-1-yl)carbamate] | 65.7 nM
